This note sets out measurements from US10590106B2, “Certain chemical entities, compositions, and methods” (NeuPharma, Inc., priority 2012, dated 2020).

One assay addresses BRAF V600E (Homo sapiens (Human), UniProt P15056, V600E). The experiment in a line: Inhibitory activity against kinase BRAF V600E, Z'-LYTE method (Invitrogen). Type of assay: biochemical. Conditions: for inhibition at 1 µM: 1 μM compound, read-out: Inhibition (% inhibition at 1 μM) against BRAF V600E. The procedure:
Inhibitory activities Inhibitory activities of compounds against BRAF, and BRAF V600E were measured by Invitrogen using Z′-LYTE® Method as briefly described in the following. 4× Test compounds are dissolved in 1% DMSO. […] ATP solutions are diluted to a 4×ATP working concentration in Kinase Buffer (50 mM HEPES pH 7.5, 0.01% BRIJ-35, 10 mM MgCl2, 1 mM EGTA). Reaction started by 30-second shaking of mixture consisting of 2.5 μL 4× test compound, […] and 2.5 μL 4×ATP Solution on Bar-coded Corning, low volume NBS, black 384-well plate (Corning Cat. #3676). Then the mixture was incubated for 60-minute at room temperature for the kinase reaction, followed by addition of 5 μL of a 1:1024 dilution of development reagent A and 30-second plate shake. The mixture was then incubated for another 60-minute at room temperature for development reaction. Fluorescence was read by plate reader. IC50 was calculated by plotting the concentration of compound vs the percentage of inhibition in treated wells using GraphPad Prism 5.
Table 2 and 3 show % inhibition at 1 μM of several compounds of the invention against BRAF and BRAF V600E, respectively, using Z′-LYTE® method.
The scale utilized in Table 4 is as follows: +++ less than 100 nM; and ++ greater than 100 nM.

A further assay deals with A375 cells. Kind of assay: Inhibition of cancer cell growth, MTT or MTS assay, A375. Type of assay: cell-based. Conditions: Homo sapiens, A-375; 72 h incubation. The procedure: (§1) Inhibition of cell growth by compounds was measured using MTT or MTS assay. Tumor cell lines were purchased from ATCC (American Type Culture Collection, Manassas, Va.). All cell lines were maintained in RPMI 1640 (Hyclone) supplemented with 10% fetal bovine serum (FBS, Hyclone), glutamine (2 mM, Hyclone), and antibiotics (penicillin 100 U/mL and streptomycin 50 μg/mL) at 37° C. in a humidified atmosphere of 5% CO2 in air. Taxol (as a positive control, Sigma) and compounds were dissolved in DMSO (Sigma), and the final concentration of DMSO in the medium was 1%. Tumor cells were plated in 96-well plates at densities of about 2000 (A375) or 4000 (A549 and Colo205) cells/well of a 96-well plate and allowed to adhere/grow for 24 h. They were then treated with various concentrations of drug and incubated for 72 h. For MTT method, medium was then removed by inverting and tapping the plates. 100 μL of MTT (0.5 mg/ml) was added to each well followed by an incubated at 37° C. for 4 h. MTT was then removed and 200 μL of DMSO was added to each well, and the ODs at 570 nm were measured after a 5 second shaking cycle in a 96-well spectrophotometer. For MTS method, 20 μL MTS (CellTiter 96 Aqueous One Solution, Promega) was added to each well followed by an incubated at 37° C. for 2-4 h, solutions were then directly put in a 96-well spectrophotometer, and the ODs at 490 nm were measured.
(§2) All concentrations of compounds were tested in triplicate and controls were averaged over 4 wells. IC50 was calculated by plotting the concentration of compound vs the percentage of inhibition in treated wells using GraphPad Prism 5. […] The scale utilized in Tables […] is as follows: +++ less than 1000 nM; ++ between 1000 nM and 5000 nM; and + greater than 5000 nM. The scale utilized in Table 8 is as follows: +++ less than 2000 nM; ++ between 2000 nM and 5000 nM; and + greater than 5000 nM.

Another assay addresses KDR (VEGFR2) (Homo sapiens (Human), UniProt P35968). The experiment in a line: Inhibitory activity against kinase KDR, Z'-LYTE method (Invitrogen). The format is biochemical. To be noted: for inhibition at 1 µM: 1 μM compound, read-out: Inhibition (% inhibition at 1 μM) against KDR. The procedure:
Inhibitory activities of compounds against KDR (VEGFR2) were also measured by Invitrogen using Z′-LYTE® Method as described above with the following modification. The 2× KDR (VEGFR2)/Tyr 01 mixture is prepared in 50 mM HEPES pH 7.5, 0.01% BRIJ-35, 10 mM MgCl2, 1 mM EGTA. The final 10 μL Kinase Reaction consists of 0.5-11.7 ng KDR (VEGFR2) and 2 μM Tyr 01 in 50 mM HEPES pH 7.5, 0.01% BRIJ-35, 10 mM MgCl2, 1 mM EGTA. After the 1 hour Kinase Reaction incubation, 5 μL of a 1:256 dilution of Development Reagent B is added.
The scale utilized in Table 5 is as follows: +++ less than 100 nM; and ++ greater than 100 nM

A further assay concerns A549 cells. The experiment in a line: Inhibition of cancer cell growth, MTT or MTS assay, A549. Type of assay: cell-based. To be noted: Homo sapiens, 72 h incubation. The procedure: as §1, §2
In general terms: Tetrazolium dyes change colour on reduction, which living cells bring about.

A word on the inhibition: it is the drop in the measured response relative to a control, in per cent. For orientation: IC50 means the concentration needed to halve the response being measured. Low values mean higher potency, high ones lower potency.

Bounds are passed on as bounds.

Chain of BRAF V600E (P15056 whole entry V600E): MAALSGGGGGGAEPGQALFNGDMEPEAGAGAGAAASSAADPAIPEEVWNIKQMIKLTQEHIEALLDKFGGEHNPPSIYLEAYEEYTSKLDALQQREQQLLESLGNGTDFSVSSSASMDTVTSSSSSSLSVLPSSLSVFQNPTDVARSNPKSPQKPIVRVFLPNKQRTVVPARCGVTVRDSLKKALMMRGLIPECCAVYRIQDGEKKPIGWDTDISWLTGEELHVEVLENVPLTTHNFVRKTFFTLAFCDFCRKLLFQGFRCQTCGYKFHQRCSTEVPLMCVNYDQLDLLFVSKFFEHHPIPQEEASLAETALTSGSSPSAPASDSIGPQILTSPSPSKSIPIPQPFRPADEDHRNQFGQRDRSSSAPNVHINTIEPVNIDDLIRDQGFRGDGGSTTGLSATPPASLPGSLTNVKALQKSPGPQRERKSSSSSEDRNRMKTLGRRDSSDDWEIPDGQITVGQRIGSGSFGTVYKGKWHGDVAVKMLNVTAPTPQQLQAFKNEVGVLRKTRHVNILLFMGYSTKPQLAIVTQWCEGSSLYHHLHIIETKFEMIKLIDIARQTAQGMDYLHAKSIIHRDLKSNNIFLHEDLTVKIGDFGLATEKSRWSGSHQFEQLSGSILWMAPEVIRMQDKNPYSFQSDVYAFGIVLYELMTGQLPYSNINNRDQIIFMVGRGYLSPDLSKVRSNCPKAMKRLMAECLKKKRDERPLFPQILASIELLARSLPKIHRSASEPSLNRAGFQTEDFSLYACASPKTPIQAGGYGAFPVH
Chain of KDR (VEGFR2) (P35968 20-1356): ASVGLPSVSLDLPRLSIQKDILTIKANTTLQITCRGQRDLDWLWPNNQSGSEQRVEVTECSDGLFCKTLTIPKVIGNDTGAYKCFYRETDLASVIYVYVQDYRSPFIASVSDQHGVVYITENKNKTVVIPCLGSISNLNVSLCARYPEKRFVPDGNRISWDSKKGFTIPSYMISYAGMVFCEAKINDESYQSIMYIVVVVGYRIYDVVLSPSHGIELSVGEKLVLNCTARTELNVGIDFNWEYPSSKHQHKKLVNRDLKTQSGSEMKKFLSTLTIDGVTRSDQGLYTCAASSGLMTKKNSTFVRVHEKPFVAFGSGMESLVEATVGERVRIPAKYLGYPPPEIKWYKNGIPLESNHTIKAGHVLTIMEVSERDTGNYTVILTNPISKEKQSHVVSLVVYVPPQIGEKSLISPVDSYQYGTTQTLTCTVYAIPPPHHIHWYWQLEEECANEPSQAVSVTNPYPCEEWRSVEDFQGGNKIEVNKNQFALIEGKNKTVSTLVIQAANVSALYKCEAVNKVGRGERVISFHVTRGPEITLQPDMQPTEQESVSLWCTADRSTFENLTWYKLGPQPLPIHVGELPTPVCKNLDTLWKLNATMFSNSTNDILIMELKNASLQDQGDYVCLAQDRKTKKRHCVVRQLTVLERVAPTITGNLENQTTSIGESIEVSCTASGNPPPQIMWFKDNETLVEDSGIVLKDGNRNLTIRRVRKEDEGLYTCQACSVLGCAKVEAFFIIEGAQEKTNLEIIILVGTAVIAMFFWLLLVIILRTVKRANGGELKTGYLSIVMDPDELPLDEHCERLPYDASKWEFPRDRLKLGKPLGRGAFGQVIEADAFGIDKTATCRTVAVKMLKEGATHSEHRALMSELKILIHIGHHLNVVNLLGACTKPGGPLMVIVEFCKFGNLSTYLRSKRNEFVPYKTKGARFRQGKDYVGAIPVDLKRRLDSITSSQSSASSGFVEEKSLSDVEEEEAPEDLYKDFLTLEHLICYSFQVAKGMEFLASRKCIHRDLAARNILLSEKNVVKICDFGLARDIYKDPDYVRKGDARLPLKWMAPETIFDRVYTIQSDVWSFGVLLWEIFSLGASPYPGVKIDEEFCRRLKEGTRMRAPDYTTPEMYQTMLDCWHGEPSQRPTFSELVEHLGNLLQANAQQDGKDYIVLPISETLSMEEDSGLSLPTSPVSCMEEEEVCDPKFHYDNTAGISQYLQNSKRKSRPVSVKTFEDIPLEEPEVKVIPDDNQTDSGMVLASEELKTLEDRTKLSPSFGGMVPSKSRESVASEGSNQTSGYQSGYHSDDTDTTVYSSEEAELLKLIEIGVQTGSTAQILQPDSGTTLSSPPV

Turning to `O=C(Nc1cccc(Oc2ccc3nccnc3c2)c1)c1cccc(F)c1` [Compound C004, 3-fluoro-N-(3-(quinoxalin-6-yloxy)phenyl)benzamide], the inhibition at 1 µM on BRAF V600E is 70 to 89%; on KDR (VEGFR2) it was < 70%. Besides, the IC50 with A375 cells was > 5 µM.

In the case of `CCCS(=O)(=O)Nc1cc(F)cc(Oc2ccc3ncc(N4CCOCC4)nc3c2)c1` [Compound C030, N-(3-fluoro-5-((3-morpholinoquinoxalin-6-yl)oxy)phenyl)propane-1-sulfonamide], the IC50 in the assay with A375 cells is > 5 µM.

With `CCCS(=O)(=O)Nc1cc(F)cc(Oc2ccc3nccnc3c2)c1` [Compound C019, N-(3-fluoro-5-(quinoxalin-6-yloxy)phenyl)propane-1-sulfonamide], the inhibition at 1 µM on BRAF V600E was < 70%. Further, the IC50 with A375 cells lay within 1 to 5 µM.

For the compound `O=C(Nc1ccc(Oc2ccc3nccnc3c2)cc1)c1cccc(C(F)(F)F)c1` [Compound C078, N-(4-(quinoxalin-6-yloxy)phenyl)-3-(trifluoromethyl)benzamide], on BRAF V600E, the inhibition at 1 µM is 70 to 89%. The IC50 in the assay on A375 cells is > 5 µM.

Regarding `O=C(Nc1cc(F)cc(F)c1)Nc1cccc(Oc2ccc3ncc(N4CCOCC4)nc3c2)c1` [Compound C045, 1-(3,5-difluorophenyl)-3-(3-((3-morpholinoquinoxalin-6-yl)oxy)phenyl)urea], the IC50 in the assay with A549 cells was > 5 µM. For the same compound, the inhibition at 1 µM on BRAF V600E was 70 to 89%; on KDR (VEGFR2), < 70%.

`O=C(Nc1ccc(Cl)cc1)Nc1ccc(F)c(Oc2ccc3ncc(N4CCOCC4)nc3c2)c1` [Compound C057, 1-(4-chlorophenyl)-3-(4-fluoro-3-((3-morpholinoquinoxalin-6-yl)oxy)phenyl)urea]: the results for the inhibition at 1 µM on BRAF V600E and on KDR (VEGFR2) were > 89% and 70 to 89%, respectively.

Regarding `O=C(Nc1cccc(F)c1)Nc1cccc(Oc2ccc3ncc(N4CCNCC4)nc3c2)c1` [Compound C037, 1-(3-fluorophenyl)-3-(3-((3-(piperazin-1-yl)quinoxalin-6-yl)oxy)phenyl)urea], the IC50 in the assay with A549 cells is > 5 µM. In addition, the inhibition at 1 µM was > 89% on BRAF V600E and 70 to 89% at KDR (VEGFR2).

Take `O=C(Nc1ccc(F)c(Cl)c1)Nc1ccc(F)c(Oc2ccc3ncc(N4CCOCC4)nc3c2)c1` [Compound C056, 1-(3-chloro-4-fluorophenyl)-3-(4-fluoro-3-((3-morpholinoquinoxalin-6-yl)oxy)phenyl)urea]: the IC50 in the assay on A549 cells was > 5 µM. Also, the inhibition at 1 µM is > 89% on BRAF V600E and 70 to 89% on KDR (VEGFR2).

Turning to `O=C(Nc1ccc(Oc2ccc3ncc(O)nc3c2)cc1)Nc1ccc(Cl)c(C(F)(F)F)c1` [Compound C103, 1-(4-chloro-3-(trifluoromethyl)phenyl)-3-(4-((3-hydroxyquinoxalin-6-yl)oxy)phenyl)urea], the IC50 in the assay on A549 cells was > 5 µM.

Take `O=C(Nc1cccc(Oc2ccc3nccnc3c2)c1)NC1CC1` [Compound C072, 1-cyclopropyl-3-(3-(quinoxalin-6-yloxy)phenyl)urea]: the IC50 in the assay on A375 cells was > 5 µM.

As for `O=C(Nc1cccc(Cl)c1)Nc1ccc(F)c(Oc2ccc3ncc(N4CCOCC4)nc3c2)c1` [Compound C055, 1-(3-chlorophenyl)-3-(4-fluoro-3-((3-morpholinoquinoxalin-6-yl)oxy)phenyl)urea], the IC50 in the assay with A549 cells was > 5 µM. Also, the inhibition at 1 µM on BRAF V600E was > 89%; at KDR (VEGFR2), 70 to 89%.

Take `O=C(Nc1cccc(F)c1)Nc1cccc(Oc2ccc3ncc(N4CCOCC4)nc3c2)c1` [Compound C042, 1-(3-fluorophenyl)-3-(3-((3-morpholinoquinoxalin-6-yl)oxy)phenyl)urea]: the IC50 with A549 cells was > 5 µM. Further, the inhibition at 1 µM is > 89% at BRAF V600E and 70 to 89% at KDR (VEGFR2).

Take `O=C(Nc1ccc(Oc2ccc3nccnc3c2)cc1F)c1cncc(C(F)(F)F)c1` [Compound C099, N-(2-fluoro-4-(quinoxalin-6-yloxy)phenyl)-5-(trifluoromethyl)nicotinamide]: the inhibition at 1 µM on BRAF V600E was < 70%. In the assay with A375 cells, the IC50 is > 5 µM.

Consider `O=C(Nc1ccc(Oc2ccc3ncc(N4CCOCC4)nc3c2)cc1)Nc1ccc(C(F)(F)F)cc1` [Compound C083, 1-(4-((3-morpholinoquinoxalin-6-yl)oxy)phenyl)-3-(4-(trifluoromethyl)phenyl)urea], for which the inhibition at 1 µM at BRAF V600E and on KDR (VEGFR2) was 70 to 89% each time. In addition, in the assay with A375 cells, the IC50 was > 5 µM.

For the compound `O=C(Nc1ccc(F)cc1)Nc1ccc(F)c(Oc2ccc3ncc(N4CCOCC4)nc3c2)c1` [Compound C053, 1-(4-fluoro-3-((3-morpholinoquinoxalin-6-yl)oxy)phenyl)-3-(4-fluorophenyl)urea], the inhibition at 1 µM is > 89% at BRAF V600E and 70 to 89% on KDR (VEGFR2). For the same compound, the IC50 in the assay with A375 cells was in the range of 1 to 5 µM.

As for `O=C(Nc1ccc(F)c(Oc2ccc3nccnc3c2)c1)c1cccc(F)c1` [Compound C017, 3-fluoro-N-(4-fluoro-3-(quinoxalin-6-yloxy)phenyl)benzamide], the inhibition at 1 µM on BRAF V600E was in the range of 70 to 89%. For the same compound, the IC50 in the assay with A375 cells is > 5 µM.

For the compound `O=C(Nc1cccc(Cl)c1)Nc1ccc(Oc2ccc3nccnc3c2)c(F)c1` [Compound C101, 1-(3-chlorophenyl)-3-(3-fluoro-4-(quinoxalin-6-yloxy)phenyl)urea], the inhibition at 1 µM at BRAF V600E fell in the range of 70 to 89%. For the same compound, the IC50 with A375 cells was < 1 µM.

As to `O=C(Nc1ccc(Cl)c(F)c1)Nc1ccc(F)c(Oc2ccc3ncc(N4CCOCC4)nc3c2)c1` [Compound C058, 1-(4-chloro-3-fluorophenyl)-3-(4-fluoro-3-((3-morpholinoquinoxalin-6-yl)oxy)phenyl)urea], in the assay with A549 cells, the IC50 lay within 2 to 5 µM. The results for the inhibition at 1 µM at BRAF V600E and on KDR (VEGFR2) were > 89% and 70 to 89%, respectively.

As to `O=C(Nc1ccc(Cl)cc1)Nc1ccc(Oc2ccc3nccnc3c2)c(F)c1` [Compound C102, 1-(4-chlorophenyl)-3-(3-fluoro-4-(quinoxalin-6-yloxy)phenyl)urea], the inhibition at 1 µM on BRAF V600E fell in the range of 70 to 89%.

On to `CCCNC(=O)Nc1cccc(Oc2ccc3nccnc3c2)c1` [Compound C071, 1-propyl-3-(3-(quinoxalin-6-yloxy)phenyl)urea], for which the inhibition at 1 µM at BRAF V600E and on KDR (VEGFR2) was < 70% each time. The IC50 with A375 cells is > 5 µM.

For the compound `COc1ccc(NC(=O)Nc2cccc(Oc3ccc4nccnc4c3)c2)cc1` [Compound C069, 1-(4-methoxyphenyl)-3-(3-(quinoxalin-6-yloxy)phenyl)urea], the IC50 at BRAF V600E and against KDR (VEGFR2) was < 0.1 µM each time.

With `O=C(Nc1ccc(Oc2ccc3nccnc3c2)cc1F)c1ccnc(C(F)(F)F)c1` [Compound C100, N-(2-fluoro-4-(quinoxalin-6-yloxy)phenyl)-2-(trifluoromethyl)isonicotinamide], the inhibition at 1 µM on BRAF V600E was < 70%. Moreover, the IC50 in the assay with A375 cells is > 5 µM.

On to `O=C(Nc1ccc(Cl)cc1)Nc1ccc(Oc2ccc3ncc(N4CCOCC4)nc3c2)cc1` [Compound C085, 1-(4-chlorophenyl)-3-(4-((3-morpholinoquinoxalin-6-yl)oxy)phenyl)urea], for which the inhibition at 1 µM at BRAF V600E was 70 to 89%.
